Measured values reported in US8377938B2, “Phenoxypyridine derivative salts and crystals thereof, and process for preparing the same” (Eisai R&D Management Co., Ltd., priority 2007, dated 2013).

Key:
[1] = tested on: Human gastric cancer cells (MKN-45); assay: Inhibitory activity against the proliferation of human gastric cancer cells (MKN-45); assay type: cell-based; details: 72 h, read-out: IC50, concentration necessary to inhibit the cell proliferation by 50%, MKN-45, 1% FBS RPMI1640, 3 days, Cell Counting Kit-8
Description: Pharmacological Test Example 2:Inhibitory Activity Against the Proliferation of Human Gastric Cancer Cells (MKN-45)
Human gastric cancer cells (MKN-45) were suspended in a 1% FBS-containing RPMI1640 medium (purchased from Sigma). The cell suspension (1×10^4 cells/ml) was added in a 96-well plate for cell culture (purchased from NUNC, Production No. 167008) at 0.1 ml/well, and then cultured in a 5% CO2 incubator (37° C.) overnight. After the culture, each well was supplied with 0.1 ml of a test substance diluted with a 1% FBS-containing RPMI1640 medium, followed by culturing in a 5% CO2 incubator (37° C.) for 3 days. After the culture, each well was supplied with 10 μl of Cell Counting Kit-8 (purchased from DOJINDO, Production No. 343-07623), followed by incubation in a 5% CO2 incubator (37° C.) for about 1.5 hrs. After the incubation, using the Plate Reader MTP-500 (Corona Electric), the absorbance of each well was determined at a measurement wavelength of 450 nm and a reference wavelength of 660 nm.

[2] = tested on: HGFR autophosphorylation; assay: Inhibitory activity against the HGFR autophosphorylation using ELISA; assay type: cell-based; details: Homo sapiens, read-out: IC50, concentration necessary to inhibit HGFR autophosphorylation activity by 50%, MKN-45 cells, 1 hr treatment
Description: Pharmacological Test Example 3:Inhibitory Activity Against the HGFR Autophosphorylation Using ELISA
1. Preparation of Cell Extract
Human gastric cancer cells (MKN-45) were suspended in a 1% FBS-containing RPMI1640 medium (purchased from Sigma). The cell suspension (1×10^5 cells/ml) was put in a 96-well plate for cell culture (purchased from NUNC, Production No. 167008) at 0.1 ml/well, and then cultured in a 5% CO2 incubator (37° C.) overnight. After the culture, from each well was removed the supernatant solution, followed by adding 0.05 ml of a 1% FBS-containing RPMI1640 medium. […]
Each well of the plate prepared in 2. was washed three times with 200 μl of PBS, and supplied with 150 μl of 3% BSA/PBS, followed by incubating at room temperature for 2 hrs. […] Each well was supplied with 70 μl of 1 M phosphoric acid, and using the Plate Reader MTP-500 (Corona Electric), the absorbance of the well was instantly determined at a measurement wavelength of 450 nm. While defining the absorbance of a well supplied with the cell extract having no test substance as 100% HGFR autophosphorylation activity, and the absorbance, of a well supplied with 50 μl of the lysis buffer as 0% HGFR autophosphorylation activity, the HGFR autophosphorylation activity (%) was calculated for each well. […]

IC50 [1] [nM]	IC50 [2] [nM]	SMILES
17	16	CN1CCN(C2CCN(C(=O)Nc3cc(Oc4ccc(NC(=O)C5(C(=O)Nc6ccc(F)cc6)CC5)c(F)c4)ccn3)CC2)CC1 [compound 1, N-(2-fluoro-4-{[2-({[4-(4-methylpiperazin-1-yl)piperidin-1-yl]carbonyl}amino)pyridin-4-yl]oxy}phenyl)-N′-(4-fluorophenyl)cyclopropane-1,1-dicarboxyamide]
5	8.4	O=C(Nc1cc(Oc2cc(F)c(NC(=O)C3(C(=O)Nc4ccc(F)cc4)CC3)cc2F)ccn1)N1CC(O)C1 [compound 2, N-{2,5-difluoro-4-[(2-{[(3-hydroxyazetidin-1-yl)carbonyl]amino}pyridin-4-yl)oxy]phenyl}-N′-(4-fluorophenyl)cyclopropane-1,1-dicarboxyamide]
